{
  "source": "patent US20230330133A1",
  "about": "“METHODS FOR THE TREATMENT OF CHOLESTEROL CRYSTAL EMBOLIZATION WITH CYCLODEXTRINS” (Beren Therapeutics P.B.C., priority 2020, published 2023)",
  "key": {"[1]": {"settings": "human subject, single-ascending i.v. doses 500-1,000 mg/kg every 4 weeks; after treatment vs pre-dose; FIG. 1A", "protocol": "A human subject was treated with 2-hydroxypropyl-beta-cyclodextrin with single-ascending doses administered intravenously every 4 weeks according to Table 1 below. […] For each dose, whole blood was collected pre-dose, post-dose (line flush), 1 hour post-dose, and 24 hours post-dose. Plasma was separated from the whole blood and subjected to a cholesterol crystal dissolution capacity (CCDC) assay using techniques similar to those described in the literature. The CCDC assay measures the ability of a sample to dissolve cholesterol crystals."}, "[2]": {"settings": "human subject, i.v. 500-1,000 mg/kg every 4 weeks, FIGS. 2A-2C", "protocol": "(§1) A human subject was treated with 2-hydroxypropyl-beta-cyclodextrin with single-ascending doses administered intravenously every 4 weeks according to Table 1 below.\nIn this Example, a human subject was treated with 2-hydroxypropyl-beta-cyclodextrin according to Example 1, and plasma levels of 24S-hydroxycholesterol and 27-hydroxycholesterol were measured. […] 27-hydroxycholesterol is an endogenous LXR ligand leading to a downstream anti-inflammatory gene signature which may, in some embodiments, address the detrimental inflammatory response via NLRP3 inflammasome effects of cholesterol crystal embolization. The elevated 27-hydroxycholesterol is also a cellular marker of macrophage activation and increased activity for cholesterol crystal phagocytosis and clearance."}, "ABCA1": {"test_system": "ABCA1", "settings": "peripheral blood, human subject, i.v. 500-1,000 mg/kg every 4 weeks; FIGS. 3A-3D", "protocol": "as §1\n(§2) In this Example, a human subject was treated with 2-hydroxypropyl-beta-cyclodextrin according to Example 1, and mRNA levels of the LXR transcription factor-regulated genes, ABCA1 and ABCG1, were measured. […] ABCA1 and ABCG1 are important cholesterol transporters and are responsible for cholesterol efflux from cells, loading of HDL particles for reverse cholesterol transport (RCT), and excretion via the hepatic pathway, to potentially reduce the cholesterol and cholesterol crystal emboli released into the vasculature and stabilize ruptured atherosclerotic plaque."}, "ABCG1": {"test_system": "ABCG1", "settings": "peripheral blood, human subject, i.v. 500-1,000 mg/kg every 4 weeks; FIGS. 3A-3D", "protocol": "as §1, §2"}, "[3]": {"settings": "pre-dose human plasma incubated ex vivo with the substance; FIG. 1B", "protocol": "For each dose, whole blood was collected pre-dose, post-dose (line flush), 1 hour post-dose, and 24 hours post-dose. Plasma was separated from the whole blood and subjected to a cholesterol crystal dissolution capacity (CCDC) assay using techniques similar to those described in the literature. The CCDC assay measures the ability of a sample to dissolve cholesterol crystals.\nBlood plasma pre-dose was also incubated ex vivo with 2-hydroxypropyl-beta-cyclodextrin and the ability of the plasma to dissolve cholesterol crystals was measured."}},
  "data": [
    {"substance": "2-hydroxypropyl-beta-cyclodextrin", "values": [
      {"measurement": "capability of blood plasma to dissolve cholesterol crystals (CCDC)", "setting": "[1]", "value": "increased capability of blood plasma to dissolve cholesterol crystals"},
      {"measurement": "plasma levels of 24S-hydroxycholesterol", "setting": "[2]", "value": "increased"},
      {"measurement": "plasma levels of 27-hydroxycholesterol", "setting": "[2]", "value": "increased"},
      {"measurement": "total cholesterol levels", "setting": "[2]; plasma", "value": "remained stable"},
      {"measurement": "mRNA levels of ABCA1", "setting": "ABCA1", "value": "increased"},
      {"measurement": "mRNA levels of ABCG1", "setting": "ABCG1", "value": "increased"},
      {"measurement": "capacity of plasma to dissolve cholesterol crystals (CCDC)", "setting": "[3]", "value": "increased capacity to dissolve cholesterol crystals"}
    ]}
  ]
}
